The values below come from patent US10647673B2, “Acetophenone compound, preparation method thereof, and application thereof in fatty liver prevention and treatment” (Nanjing Bioenergy Medicine Science & Technology Co., Ltd., priority 2017, dated 2020).

Assay type in all cases: in vivo
Assay [1] deals with fatty liver of the SD rats. Kind of assay: Pathological sections and grading of fatty liver of SD rats. To be noted: compounds 80 mg/kg, Sim 10 mg/kg, OCA 10 mg/kg. As for the experimental part: (§1) 500 g of lard oil was taken, placed in a container, and heated to melt. When the temperature rose to 100° C., it was added with 200 g of cholesterol to dissolve completely, and then further added with 20 g of propylthiouracil. The resulted mixture was stirred well, and added with 500 ml of Tween 80 after dissolution, resulting in an oil phase. At the same time, 600 mL of distilled water and 400 mL of 1,2-propanediol were taken and heated to 60° C. in a water bath, then were added with 40 g of sodium deoxycholate. The resulted mixture was stirred well until realizing complete dissolution, so as to give an aqueous phase. The aqueous phase was added into the oil phase and mixed well to give a lipid emulsion. The lipid emulsion was heated in a water bath of 37° C. before intragastric administration to animals.
(§2) An appropriate amount of pharmaceutical was weighed, added with 0.5% CMC-Na, and mixed homogeneously by grinding. There are groups for Compound 01 (80 mg/kg), Compound 02 (80 mg/kg), Compound 03 (80 mg/kg), Compound 04 (80 mg/kg), Compound 05 (80 mg/kg), Compound 06 (80 mg)/kg), Compound 07 (80 mg/kg), Compound 08 (80 mg/kg), Compound 09 (80 mg/kg), Compound 10 (80 mg/kg), Compound 11 (80 mg/kg), Compound 12 (80 mg/kg), Compound 13 (80 mg/kg), Compound 14 (80 mg/kg), Compound 15 (80 mg/kg), Compound 16 (80 mg/kg), Compound 17 (80 mg/kg), Compound 18 (80 mg/kg), Compound 19 (80 mg/kg), Compound 20 (80 mg/kg), Compound 21 (80 mg/kg), and Compound 22 (80 mg/kg).
(§3) Male SD rats weighing 180-200 g were fed adaptively for 7 days. Based on body weight, 10 animals were used as control and the remaining animals were intragastrically administered with the lipid emulsion every day, 1 ml/100 g body weight for 14 days. After fasting for 12 hours, 1 mL of blood was collected from the orbits of the animals, and was determined by Hitachi Automatic Biochemical Analyzer 7080 for serum cholesterol (CHO), triglyceride (TG), low density lipoprotein (LDL-C) and high density lipoprotein (HDL-C).
(§4) The modeled rats were continued with the intragastric administration of the lipid emulsion. At the same time, the pharmaceutical-administered groups were administrated with a corresponding dose of pharmaceuticals, while the Model group was administrated with an equal volume of solvent. The pharmaceutical-administered groups were administrated with the lipid emulsion in the morning, and with the pharmaceuticals in the afternoon. The animals were measured for the body weight once a week, and were observed. After 14 days of continuous administration, 1 mL of blood was collected from the orbits, and was determined for the contents of triglyceride, cholesterol, low density lipoprotein and high density lipoprotein in blood serum.

For assay [2], the system named is Fatty Liver Diseases of SD Rats. Briefly: Liver functions of lipid-emulsion SD rats after administration for 4 weeks. The arrangement: unit not given here. To be noted: compounds 80 mg/kg, Obeticholic Acid 10 mg/kg.
For assay [3] the test system is unchanged. Kind of assay: Blood serum lipids in SD rats given lipid emulsion (fatty liver model). The arrangement: unit not given here. To be noted: blood serum after 14 days of continuous administration; compounds 80 mg/kg, Obeticholic Acid 10 mg/kg, intragastric; lipid emulsion continued. As for the experimental part:
as §1, §2, §3, §4

As to `CC[C@H]1[C@@H](O)[C@@H]2[C@H](CC[C@]3(C)[C@@H]([C@H](C)CCC(=O)O)CC[C@@H]23)[C@@]2(C)CC[C@@H](O)C[C@@H]12` [Obeticholic Acid, Obeticholic acid, reference compound], the “Pathological grading: Steatotic hepatocytes” value in assay [1] (animal 1) was “++ (45-65% of hepatocytes undergoing steatosis)”. The “Pathological grading: Steatotic hepatocytes” value in assay [1] (animal 2) is on record as “++ (45-65% of hepatocytes undergoing steatosis)”. Also, the “Pathological grading: Steatotic hepatocytes” value in assay [1] (animal 3) is given as “++ (45-65% of hepatocytes undergoing steatosis)”. The “Pathological grading: Steatotic hepatocytes” value in assay [1] (animal 4) is reported as “+++ (65-85% or more of hepatocytes undergoing steatosis)”. The “Pathological grading: Steatotic hepatocytes” value in assay [1] (animal 5) was “++ (45-65% of hepatocytes undergoing steatosis)”. In assay [2], this molecule gave an ALP of 999.60 ± 354.29, an ALT of 136.40 ± 62.68, an AST of 248.20 ± 156.61 and a TBIL of 4.06 ± 1.40. In assay [3], the “CHO (serum cholesterol)” value is reported as 4.74 ± 0.34, the “HDL-C (high density lipoprotein)” value was found to be 1.68 ± 0.22, the “LDL-C (low density lipoprotein)” value came to 2.85 ± 1.00 and the “TG (triglyceride)” value stood at 0.52 ± 0.06.

Regarding `CC(=O)c1ccc(NC(=O)C(C)(C)CCCOc2cc(C)ccc2C)cc1` [Compound 02], the “Pathological grading: Steatotic hepatocytes” value in assay [1] (animal 1) was “+ (25-45% of hepatocytes undergoing steatosis)”. For the same molecule, the “Pathological grading: Steatotic hepatocytes” value in assay [1] (animal 2) is given as “+ (25-45% of hepatocytes undergoing steatosis)”. Also, the “Pathological grading: Steatotic hepatocytes” value in assay [1] (animal 3) was “++ (45-65% of hepatocytes undergoing steatosis)”. For the same molecule, the “Pathological grading: Steatotic hepatocytes” value in assay [1] (animal 4) was “+ (25-45% of hepatocytes undergoing steatosis)”. Besides, the “Pathological grading: Steatotic hepatocytes” value in assay [1] (animal 5) is given as “++ (45-65% of hepatocytes undergoing steatosis)”. Moreover, in assay [2], the ALP was determined as 1001.52 ± 273.34, the ALT was found to be 62.52 ± 13.24, the AST turned out to be 187.00 ± 36.44 and the TBIL was found to be 1.98 ± 0.81. In assay [3], the “CHO (serum cholesterol)” value is recorded as 4.29 ± 0.65, the “HDL-C (high density lipoprotein)” value is 1.74 ± 0.29, the “LDL-C (low density lipoprotein)” value is listed as 2.18 ± 0.71 and the “TG (triglyceride)” value is given as 0.51 ± 0.19.

For the molecule `Cc1ccc(C)c(OCCCC(C)(C)C(=O)Nc2ccc(C(=O)CNC(=O)c3cccnc3)cc2)c1` [Compound 12], in assay [1] (animal 1), the “Pathological grading: Infiltration of inflammatory cells” value (“Pathological grading: Infiltration” for short) came out at 0 and the “Pathological grading: Steatotic hepatocytes” value amounted to 0. Also, in assay [1] (animal 3), the “Pathological grading: Infiltration” value came out at 0 and the “Pathological grading: Steatotic hepatocytes” value came to 0. In addition, the “Pathological grading: Steatotic hepatocytes” value in assay [1] (animal 4) stood at 0. For the same molecule, in assay [1] (animal 5), the “Pathological grading: Infiltration” value was 0. In assay [2], this molecule displayed an ALP of 994.50 ± 150.68, an ALT of 54.00 ± 5.72, an AST of 137.75 ± 31.74 and a TBIL of 3.25 ± 2.11. For the same molecule, in assay [3], the “CHO (serum cholesterol)” value turned out to be 4.03 ± 0.47, the “HDL-C (high density lipoprotein)” value turned out to be 1.92 ± 0.11, the “LDL-C (low density lipoprotein)” value came to 2.16 ± 0.05 and the “TG (triglyceride)” value is 0.33 ± 0.05.

For the molecule `Cc1ccc(C)c(OCCCC(C)(C)C(=O)NCC(=O)c2ccc(O)c(O)c2)c1` [Compound 21], the “Pathological grading: Steatotic hepatocytes” value in assay [1] (animal 1) is recorded as “+ (25-45% of hepatocytes undergoing steatosis)”. Also, the “Pathological grading: Steatotic hepatocytes” value in assay [1] (animal 2) worked out at 0. Also, the “Pathological grading: Steatotic hepatocytes” value in assay [1] (animal 3) is given as “+ (25-45% of hepatocytes undergoing steatosis)”. In addition, in assay [1] (animal 4), the “Pathological grading: Infiltration” value amounted to 0 and the “Pathological grading: Steatotic hepatocytes” value is “+ (25-45% of hepatocytes undergoing steatosis)”. For the same molecule, the “Pathological grading: Steatotic hepatocytes” value in assay [1] (animal 5) is “+ (25-45% of hepatocytes undergoing steatosis)”. In assay [2], this molecule registered an ALP of 1074.00 ± 181.32, an ALT of 65.6 ± 27.20, an AST of 184.40 ± 18.68 and a TBIL of 3.23 ± 1.35. Also, in assay [3], the “CHO (serum cholesterol)” value is recorded as 4.37 ± 0.62, the “HDL-C (high density lipoprotein)” value stood at 1.99 ± 0.44, the “LDL-C (low density lipoprotein)” value is 2.09 ± 0.68 and the “TG (triglyceride)” value is on record as 0.80 ± 0.13.

Turning to `Cc1ccc(C)c(OCCCC(C)(C)C(=O)NCC(=O)c2ccc(OC(=O)c3cccnc3)c(O)c2)c1` [Compound 22], the “Pathological grading: Steatotic hepatocytes” value in assay [1] (animal 1) was “+ (25-45% of hepatocytes undergoing steatosis)”. In addition, the “Pathological grading: Steatotic hepatocytes” value in assay [1] (animal 2) is recorded as “+ (25-45% of hepatocytes undergoing steatosis)”. Also, the “Pathological grading: Steatotic hepatocytes” value in assay [1] (animal 3) was “++ (45-65% of hepatocytes undergoing steatosis)”. In addition, in assay [1] (animal 4), the “Pathological grading: Steatotic hepatocytes” value was “+ (25-45% of hepatocytes undergoing steatosis)”. For the same molecule, the “Pathological grading: Steatotic hepatocytes” value in assay [1] (animal 5) is reported as “+ (25-45% of hepatocytes undergoing steatosis)”. For the same molecule, in assay [2], the ALP came to 874.33 ± 251.66, the ALT was determined as 58.00 ± 2.55, the AST is reported as 180.60 ± 27.19 and the TBIL is reported as 2.97 ± 1.53. Also, in assay [3], the “CHO (serum cholesterol)” value is on record as 4.36 ± 1.08, the “HDL-C (high density lipoprotein)” value turned out to be 1.47 ± 0.51, the “LDL-C (low density lipoprotein)” value is recorded as 2.87 ± 1.25 and the “TG (triglyceride)” value amounted to 0.57 ± 0.27.

On to `Cc1ccc(C)c(OCCCC(C)(C)C(=O)NCC(=O)c2ccc(N)cc2)c1` [Compound 04], for which the “Pathological grading: Steatotic hepatocytes” value in assay [1] (animal 1) is “++ (45-65% of hepatocytes undergoing steatosis)”; in assay [1] (animal 2), “++ (45-65% of hepatocytes undergoing steatosis)”; in assay [1] (animal 3) it was “++ (45-65% of hepatocytes undergoing steatosis)”; in assay [1] (animal 4), “+++ (65-85% or more of hepatocytes undergoing steatosis)”; in assay [1] (animal 5) it was “++ (45-65% of hepatocytes undergoing steatosis)”.
